Measurements as given in PMC6479946 (Molecules, 2019).

Tests used:
in vivo = settings: rat plasma, n = 8, mean ± SD; for AUC(0-t) / AUC(0-inf) / CL/F / Cmax / k el / MRT / Tmax: male, Sprague-Dawley, rat, in vivo, po; for AUC(0-t): AUC(0-t) of HAR; for AUC(0-inf): AUC(0-∞) of HAR; for CL/F: CL/F of HAR; for Cmax: Cmax of HAR; for k el: Ke of HAR; for MRT: MRT of HAR; for Tmax: Tmax of HAR
Description: The analytes were separated on an ACQUITY UPLC BEH C18 column (2.1 mm × 50 mm, 1.7 μm, Waters, Milford, USA). […] The flow rate was 0.3 mL/min. The column and sample-tray temperature were kept at 40 °C and 4 °C, respectively. The injection volume was 5.0 μL using a partial loop with needle over fill mode.
The compound dependent parameters used for analysis were summarized in Supplementary materials Table S1.
A rapid and convenient precipitation method was used to prepare the plasma samples. A 100 μL aliquot of plasma sample was spiked with 100 μL of IS solution and 300 μL of methanol in a 1.5 mL centrifuge tube; subsequently, the mixtures were vortex-mixed for 30.0 s and then centrifuged at 1.5 × 10^4× g for 10 min at 4 °C. A 100 μL aliquot of supernatant was combined with 25.0 μL of 0.1% formic acid water in a clean centrifuge tube and then vortex-mixed for 30 s. A 5.0 μL aliquot of mixture was injected into the UPLC-MS/MS system for analysis.
Fifty-six pathogen-free male adult rats were randomly divided into seven groups with eight rats in each group for pharmacokinetic study. […] One group was intragastrically administered with MEM hydrochloride 5.0 mg/kg dissolved in ultrapure water, namely, MEM group. […] The blood samples were immediately centrifuged at 4.0 × 10^3× g at […] for 10 min, and 100 μL of the supernatant plasma was transferred into another new 1.5 mL centrifuge tube and stored at −20 °C until UPLC-MS/MS analysis.
All standard curves and quantitative data were processed by Agilent Mass Hunter Quantitative Analysis Workstation Software. […] All the pharmacokinetic parameters were processed using the non-compartmental pharmacokinetics data analysis software program PK solutions 2.0^TM (Summit Research Services, USA). […] The AUC(0-t) was obtained by the linear/logarithmic trapezoidal rule, and the area under the plasma concentration versus time curve from zero to infinity (AUC(0-∞)) was calculated by means of the trapezoidal rule with extrapolation to infinity with a terminal elimination rate constant. The Pearson correlation coefficient analysis was processed by IBM SPSS Statistics Version 21. A statistical analysis was performed using analysis of variance with α = 0.05 as the minimal level of significance.

[1] = oral administration of 40.0 mg/kg HAR; cited from earlier work
[2] = 20 mg/kg, oral HAR 20.0 mg/kg + MEM 5.0 mg/kg (HAR-L + MEM)
[3] = 20 mg/kg, oral HAR 20.0 mg/kg alone (HAR-L)
[4] = 40 mg/kg, oral HAR 40.0 mg/kg + MEM 5.0 mg/kg (HAR-M + MEM)
[5] = 40 mg/kg, oral HAR 40.0 mg/kg alone (HAR-M)
[6] = 80 mg/kg, oral HAR 80.0 mg/kg + MEM 5.0 mg/kg (HAR-H + MEM)
[7] = 80 mg/kg, oral HAR 80.0 mg/kg alone (HAR-H)
[8] = oral HAR 20.0 mg/kg + MEM 5.0 mg/kg (HAR-L + MEM)
[9] = oral HAR 20.0 mg/kg alone (HAR-L)
[10] = oral HAR 40.0 mg/kg + MEM 5.0 mg/kg (HAR-M + MEM)
[11] = oral HAR 40.0 mg/kg alone (HAR-M)
[12] = oral HAR 80.0 mg/kg + MEM 5.0 mg/kg (HAR-H + MEM)
[13] = oral HAR 80.0 mg/kg alone (HAR-H)

SMILES: COc1ccc2c(c1)[nH]c1c(C)nccc12 [HAR, 7-methoxy-1-methyl-9H-pyrido [3,4-β] indole]
- AUC(0-t) (in vivo; [2]): 141 ± 56.7 ng·h/mL
- AUC(0-t) (in vivo; [3]): 74.9 ± 36.3 ng·h/mL
- AUC(0-inf) (in vivo; [2]): 158 ± 65.4 ng·h/mL
- AUC(0-inf) (in vivo; [3]): 83.1 ± 38.9 ng·h/mL
- CL/F (in vivo; [2]): 158 L/h/kg
- CL/F (in vivo; [3]): 323 L/h/kg
- Cmax (in vivo; [2]): 64.5 ± 14.7 ng/mL
- Cmax (in vivo; [3]): 31.4 ± 16.3 ng/mL
- k el (in vivo; [2]): 8.67e-05 s⁻¹
- k el (in vivo; [3]): 0.000119 s⁻¹
- MRT (in vivo; [2]): 4.02 ± 1.96 h
- MRT (in vivo; [3]): 3.36 ± 1.38 h
- Tmax (in vivo; [2]): 0.5 ± 0.267 h
- Tmax (in vivo; [3]): 0.5 ± 0.267 h
- AUC(0-t) (in vivo; [4]): 139 ± 40.6 ng·h/mL
- AUC(0-t) (in vivo; [5]): 100 ± 44.8 ng·h/mL
- AUC(0-inf) (in vivo; [4]): 153 ± 43.1 ng·h/mL
- AUC(0-inf) (in vivo; [5]): 109 ± 47.9 ng·h/mL
- CL/F (in vivo; [4]): 278 L/h/kg
- CL/F (in vivo; [5]): 431 L/h/kg
- Cmax (in vivo; [4]): 86.6 ± 31 ng/mL
- Cmax (in vivo; [5]): 77 ± 53.8 ng/mL
- k el (in vivo; [4]): 4.83e-05 s⁻¹
- k el (in vivo; [5]): 0.000132 s⁻¹
- MRT (in vivo; [4]): 3.28 ± 1.02 h
- MRT (in vivo; [5]): 2.83 ± 1.41 h
- Tmax (in vivo; [4]): 0.24 ± 0.129 h
- Tmax (in vivo; [5]): 0.365 ± 0.271 h
- AUC(0-t) (in vivo; [6]): 1060 ± 540 ng·h/mL
- AUC(0-t) (in vivo; [7]): 502 ± 180 ng·h/mL
- AUC(0-inf) (in vivo; [6]): 1110 ± 508 ng·h/mL
- AUC(0-inf) (in vivo; [7]): 587 ± 275 ng·h/mL
- CL/F (in vivo; [6]): 91.2 L/h/kg
- CL/F (in vivo; [7]): 163 L/h/kg
- Cmax (in vivo; [6]): 755 ± 298 ng/mL
- Cmax (in vivo; [7]): 368 ± 253 ng/mL
- k el (in vivo; [6]): 0.000127 s⁻¹
- k el (in vivo; [7]): 0.000116 s⁻¹
- MRT (in vivo; [6]): 2.88 ± 1.93 h
- MRT (in vivo; [7]): 3.17 ± 1.48 h
- Tmax (in vivo; [6]): 0.448 ± 0.63 h
- Tmax (in vivo; [7]): 0.344 ± 0.186 h
- Ka of HAR (in vivo; [8]): 1.91 ± 2.46 h⁻¹
- T1/2a of HAR (in vivo; [8]): 1.57 ± 2.28 h
- T1/2e of HAR (in vivo; [8]): 2.89 ± 2.26 h
- T1/2d of HAR (in vivo; [8]): 1.22 ± 1.24 h
- Vd of HAR (in vivo; [8]): 59.0 ± 35.1 (L/kg) × 10
- Ka of HAR (in vivo; [9]): 1.66 ± 2.27 h⁻¹
- T1/2a of HAR (in vivo; [9]): 1.29 ± 1.25 h
- T1/2e of HAR (in vivo; [9]): 2.05 ± 1.11 h
- T1/2d of HAR (in vivo; [9]): 2.14 ± 2.57 h
- Vd of HAR (in vivo; [9]): 80.3 ± 39.2 (L/kg) × 10
- Ka of HAR (in vivo; [10]): 1.52 ± 1.08 h⁻¹
- T1/2a of HAR (in vivo; [10]): 1.18 ± 1.22 h
- T1/2e of HAR (in vivo; [10]): 4.33 ± 1.31 h
- T1/2d of HAR (in vivo; [10]): 2.33 ± 2.71 h
- Vd of HAR (in vivo; [10]): 172 ± 61.6 (L/kg) × 10
- Ka of HAR (in vivo; [11]): 2.69 ± 2.60 h⁻¹
- T1/2a of HAR (in vivo; [11]): 0.529 ± 0.478 h
- T1/2e of HAR (in vivo; [11]): 2.28 ± 1.86 h
- T1/2d of HAR (in vivo; [11]): 0.960 ± 0.734 h
- Vd of HAR (in vivo; [11]): 136 ± 105 (L/kg) × 10
- Ka of HAR (in vivo; [12]): 2.93 ± 2.06 h⁻¹
- T1/2a of HAR (in vivo; [12]): 0.357 ± 0.228 h
- T1/2e of HAR (in vivo; [12]): 3.21 ± 3.17 h
- T1/2d of HAR (in vivo; [12]): 1.40 ± 1.74 h
- Vd of HAR (in vivo; [12]): 60.3 ± 89.6 (L/kg) × 10
- Ka of HAR (in vivo; [13]): 2.80 ± 2.74 h⁻¹
- T1/2a of HAR (in vivo; [13]): 0.605 ± 0.546 h
- T1/2e of HAR (in vivo; [13]): 2.35 ± 1.44 h
- T1/2d of HAR (in vivo; [13]): 1.36 ± 1.37 h
- Vd of HAR (in vivo; [13]): 51.4 ± 33.1 (L/kg) × 10
- maximum peak concentration (Cmax) of HAR [1]: 67.1 ± 34.3 ng/mL
